Consider 18 compounds from US20230227437A1, “IMMUNOMODULATOR” (priority 2020, published 2023).

pIC50: −log10 of the molar value.

In assay [1] the target is T1, human IL-17A (hIL-17A) (Homo sapiens, UniProt Q16552).
T1 construct: purchased Sino Biological Inc. 12047-H07B
T1 sequence (Q16552 24-155): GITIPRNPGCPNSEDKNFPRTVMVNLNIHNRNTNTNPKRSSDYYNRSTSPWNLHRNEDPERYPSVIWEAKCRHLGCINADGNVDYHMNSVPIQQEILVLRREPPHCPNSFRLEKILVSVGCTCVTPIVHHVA
Put plainly: IL-17A enzyme-linked immunosorbent assay (competitive ELISA, receptor-ligand binding). The procedure: The inhibition of receptor-ligand binding by human IL-17A (hIL-17A) inhibitors was detected by competitive ELISA. A 96-well plate was inoculated 0.2 μg/ml IL-17 (Sino Biological Inc. Cat #12047-H07B) for incubation at 37° C. for 30 min, 100 μL for per well. The 96-well plate was washed four times with phosphate buffered saline (PBS) containing Tween-20 (PBST, 0.05% Tween-20), 200 μL for per well each time. 200 μL of 5% skim milk were added into the 96-well plate for incubation on a shaker at 25° C. for 30 min. The 96-well plate was washed four times with PBST (0.05% Tween-20), and added with 89 μL of PBST and 1 μL of a compound to be measured (100×), in which a concentration the compound to be measured (100×) was 0.003 μM-30 μM. The mixture was mixed evenly and incubated at 25° C. for 10 min. The mixture was added with 10 μL of 16 nM IL-17R, followed by incubation at 25° C. for 30 min. After washing the 96-well plate 4 times, 100 μL of anti-Fc tag horseradish peroxidase (HRP) coupled antibody were added for incubation on a shaker at 25° C. for 30 min. After washing the 96-well plate 4 times, 100 μL of 3,3′,5,5′-tetramethylbenzidine (TMB) substrate solution were added to the 96-well plate for incubation away from light at 25° C. After addition of 20% HCl, an absorbance was measure by a microplate reader at 450 nm.
The compounds prepared according to the above method were assayed for human IL-17A inhibitory activity.
A general note: In an ELISA, binding on a coated surface is turned into a signal by an enzyme label.

The target in assay [2] is T2, hIL-17A (Homo sapiens, UniProt Q16552).
T2 construct: purchased R&D 317-ILB
T2 sequence (Q16552 20-155 limits assumed): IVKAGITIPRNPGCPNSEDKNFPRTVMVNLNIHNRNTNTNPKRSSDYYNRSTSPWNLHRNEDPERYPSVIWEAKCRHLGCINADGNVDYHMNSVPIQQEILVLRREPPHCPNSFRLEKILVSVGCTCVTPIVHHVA
Put plainly: Inhibition of hIL-17A-induced chemokine GROα/CXCL1 production in HT-29 cell. It counts as cell-based. The procedure:
Human colorectal adenocarcinoma cell HT-29 was inoculated to a 96-well plate (5×10^4 for per well), and incubated at 37° C. on an incubator overnight. A mixture of 30 ng/mL hIL-17A protein (R&D, #317-ILB) with gradient concentrations of IL-17A small molecule inhibitors or with 0.3 μg/mL positive control IL-17A antibody (R&D, #AF-317-NA) was incubated for 1 h at 37° C., and added into the 96-well plate to incubated with HT-29 at 37° C. for 48 h. A level of GROα in a cell culture supernatant was then detected using an ELISA kit for GROα (Cisbio, #62HCXC1peg).
Inhibitory effect of the compound prepared in Examples on hIL-17A-induced chemokine GROα/CXCL1 production in HT-29 cell was tested according to the methods of Experimental Examples 1 and 2. […] “-” indicated not tested. According to the results, the compounds provided herein have good human IL-17A inhibitory activity and can be effectively used in the treatment of diseases associated with abnormal hIL-17A activity.

With `CCc1nocc1C(=O)N[C@H](C(=O)Nc1ccc(-c2c(C)n[nH]c2C)cc1)C1c2ccc(F)cc2OCC12CC2` (stereo partly drawn) [Compound 36], the pIC50 is 6.84 in assay [1] and 7.24 in assay [2].

On to `CCc1nonc1C(=O)N[C@H](C(=O)Nc1ccc(-c2c(C)n[nH]c2C)c(F)c1)C1c2ccc(F)cc2OCC12CC2` (stereo partly drawn) [Compound 38], for which the pIC50 in assay [1] is 6.56; in assay [2], 6.30.

Consider `Cc1n[nH]c(C)c1-c1ncc(NC(=O)[C@@H](NC(=O)c2nonc2C(C)C)C2c3ccc(F)cc3OCC23CC3)cc1F` (stereo partly drawn) [Compound 39], for which the values for the pIC50 in assay [1] and in assay [2] were 6.95 and 6.07, respectively.

Turning to `Cc1n[nH]c(C)c1-c1ccc(NC(=O)[C@@H](NC(=O)c2nonc2C(C)C)C2c3ccc(F)cc3OCC23CC3)cc1F` (stereo partly drawn) [Compound 40], the pIC50 in assay [1] is 6.73; in assay [2] it was 6.94.

`Cc1nonc1C(=O)N[C@H](C(=O)Nc1ccc(-c2c(C)n[nH]c2C)cc1)C1c2cc(F)c(F)cc2OCC12CC2` (stereo partly drawn) [Compound 42]: the pIC50 is 7.40 in assay [1] and 7.15 in assay [2].

Take `Cc1n[nH]c(C)c1-c1ccc(NC(=O)[C@@H](NC(=O)c2nonc2C(C)C)C2c3cc(F)c(F)cc3OCC23CC3)cn1` (stereo partly drawn) [Compound 44]: the pIC50 was 6.91 in assay [1] and 6.47 in assay [2].

In the case of `Cc1n[nH]c(C)c1-c1ccc(NC(=O)[C@@H](NC(=O)c2nonc2C(C)C)C2c3cc(F)c(F)cc3OCC23CC3)cc1` (stereo partly drawn) [Compound 45], the pIC50 was 6.90 in assay [1] and 7.30 in assay [2].

Turning to `Cc1n[nH]c(C)c1-c1ncc(NC(=O)[C@@H](NC(=O)c2nonc2C(C)C)C2c3cc(F)c(F)cc3OCC23CC3)cc1F` (stereo partly drawn) [Compound 46], the pIC50 in assay [1] is 7.02; in assay [2], 6.91.

Regarding `Cc1n[nH]c(C)c1-c1ccc(NC(=O)[C@@H](NC(=O)c2ccnn2C(C)C)C2c3cc(F)c(F)cc3OCC23CC3)cc1` (stereo partly drawn) [Compound 48], the pIC50 is 6.87 in assay [1] and 6.74 in assay [2].

Take `Cc1n[nH]c(C)c1-c1ccc(NC(=O)[C@@H](NC(=O)c2ccnn2C(C)C)C2c3ccc(F)c(F)c3OCC23CC3)cn1` (stereo partly drawn) [Compound 50]: the pIC50 is 7.09 in assay [1] and 6.24 in assay [2].

As to `Cc1n[nH]c(C)c1-c1ncc(NC(=O)[C@@H](NC(=O)c2ccnn2C(C)C)C2c3ccc(F)c(F)c3OCC23CC3)cc1F` (stereo partly drawn) [Compound 51], the results for the pIC50 in assay [1] and in assay [2] were 6.81 and 6.50, respectively.

Turning to `Cc1n[nH]c(C)c1-c1ccc(NC(=O)[C@@H](NC(=O)C2(F)CC2)C2c3cc(F)c(F)cc3OCC23CC3)cc1` (stereo partly drawn) [Compound 55], the pIC50 in assay [1] is 7.19; in assay [2], 6.64.

Take `Cc1n[nH]c(C)c1-c1ccc(NC(=O)[C@@H](NC(=O)c2ccnn2C(C)C)C2c3ccc(F)c(F)c3OCC23CC3)cc1` (stereo partly drawn) [Compound 56]: the pIC50 was 6.86 in assay [1] and 6.45 in assay [2].

For the compound `Cc1nonc1C(=O)N[C@H](C(=O)Nc1ccc(-c2c(C)n[nH]c2C)cc1)C1c2ccc(F)c(F)c2OCC12CC2` (stereo partly drawn) [Compound 57], the pIC50 is 6.95 in assay [1] and 6.46 in assay [2].

For `Cc1n[nH]c(C)c1-c1ccc(NC(=O)[C@@H](NC(=O)c2ccnn2C(C)C)C2c3c(F)cc(F)cc3OCC23CC3)cn1` (stereo partly drawn) [Compound 59], the pIC50 in assay [1] was 6.65; in assay [2], 5.83.

As for `Cc1n[nH]c(C)c1-c1ncc(NC(=O)[C@@H](NC(=O)c2ccnn2C(C)C)C2c3c(F)cc(F)cc3OCC23CC3)cc1F` (stereo partly drawn) [Compound 60], the values for the pIC50 in assay [1] and in assay [2] were 6.71 and 6.55, respectively.

With `Cc1n[nH]c(C)c1-c1ccc(NC(=O)[C@@H](NC(=O)c2ccnn2C(C)C)C2c3cc(F)c(F)cc3OCC23CC3)cn1` (stereo partly drawn) [Compound 62], the pIC50 in assay [1] is 6.82; in assay [2], 6.75.

As for `Cc1n[nH]c(C)c1-c1ccc(NC(=O)[C@@H](NC(=O)c2nonc2C(C)C)C2c3ccc(F)c(F)c3OCC23CC3)cn1` (stereo partly drawn) [Compound 63], the pIC50 in assay [1] was 6.81; in assay [2] it was 6.22.

A word on the pIC50: it is the negative decadic logarithm of the IC50, by convention in mol/L. The low end stands for a large IC50, the high end for a small IC50.
